Experimental data as given in patent US11845752B2, “Substituted imidazo[1,5-a]pyrazines for the treatment of hepatitis B” (ALIGOS THERAPEUTICS, INC., priority 2020, dated 2023).
Like-named read-outs stand apart in the source and are kept apart here.

Tested on: HBV
Test: HBV-DNA antiviral assay using HepG2.117 cells (intracellular HBV DNA by qPCR)
Format: cell-based, HBV genotype D
Details: HBV DNA inhibition, 3 days incubation, read-out: EC50
Summary of the method: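 HepG2.117 cells (stably integrated genotype D HBV, Tet-off) seeded without doxycycline to induce pgRNA, then treated next day with 9 concentrations (4-fold dilutions, 2% DMSO) for 3 days at 37 °C. Intracellular HBV DNA quantified by qPCR against standard curve, viability by ATP content; inhibition relative to DMSO control, EC50/EC90/CC50 by non-linear regression.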

[1] = Hepatitis B virus, HepG2.117, 72 h

CC1Cn2c(c(C(=O)NCc3ccccc3-c3ncccn3)n(-c3ccc(OC[C@H](C)O)cc3)c2=O)CN1C(=O)c1ccc(Br)c(C(F)(F)F)c1 (single isomer, unassigned) [Compound 65a]
EC50 [1]: < 50 nM

CC1Cn2c(c(C(=O)NCc3ccccc3-c3ccccn3)n(-c3ccc(OC[C@@H](O)C(F)(F)F)cc3)c2=O)CN1C(=O)c1ccc(Br)c(C(F)(F)F)c1 (single isomer, unassigned) [Compound 68a]
EC50 [1]: < 50 nM

CC1Cn2c(c(C(=O)NCc3ccccc3-c3ccccn3)n(-c3ccc(OC[C@H](O)C(F)(F)F)cc3)c2=O)CN1C(=O)c1ccc(Br)c(C(F)(F)F)c1 (single isomer, unassigned) [Compound 69a]
EC50 [1]: < 50 nM

CCC(=O)COc1ccc(-n2c(C(=O)NCc3ccccc3-c3ncccn3)c3n(c2=O)CC(C)N(C(=O)c2ccc(Br)c(C(F)(F)F)c2)C3)cc1 (single isomer, unassigned) [Compound 70a]
EC50 [1]: 50 to 500 nM

CCC(=O)COc1ccc(-n2c(C(=O)NCc3ccccc3-c3ncccn3)c3n(c2=O)CC(C)N(C(=O)c2ccc(Br)c(C(F)(F)F)c2)C3)cc1 (single isomer, unassigned) [Compound 70b]
EC50: < 50 nM

CC1Cn2c(c(C(=O)NCc3ccccc3-c3ccncn3)n(-c3ccc(N4CC5(CN(C)C5)C4)cc3)c2=O)CN1C(=O)c1ccc(Br)c(C(F)(F)F)c1 (single isomer, unassigned) [Compound 73a, (6R*)-7-[4-bromo-3-(trifluoromethyl)benzoyl]-6-methyl-2-(4-{6-methyl-2,6-diazaspiro[3.3]heptan-2-yl}phenyl)-3-oxo-N-{[2-(pyrimidin-4-yl)phenyl]methyl}-5H,6H,8H-imidazo[1,5-a]pyrazine-1-carboxamide]
EC50: 500 to 5000 nM

CC1Cn2c(c(C(=O)NCc3ccccc3-c3ccncn3)n(-c3ccc(N4CC5(CN(C)C5)C4)cc3)c2=O)CN1C(=O)c1ccc(Br)c(C(F)(F)F)c1 (single isomer, unassigned) [Compound 73b, (6S*)-7-[4-bromo-3-(trifluoromethyl)benzoyl]-6-methyl-2-(4-{6-methyl-2,6-diazaspiro[3.3]heptan-2-yl}phenyl)-3-oxo-N-{[2-(pyrimidin-4-yl)phenyl]methyl}-5H,6H,8H-imidazo[1,5-a]pyrazine-1-carboxamide]
EC50: 50 to 500 nM

CC1Cn2c(c(C(=O)NCc3ccccc3-c3ccncn3)n(-c3ccc(OCC4(O)CC4)cc3)c2=O)CN1C(=O)c1ccc(Br)c(C(F)(F)F)c1 (single isomer, unassigned) [Compound 74b]
EC50 [1]: < 50 nM

CC1Cn2c(c(C(=O)NCc3ccccc3-c3cccnn3)n(-c3ccc(N4CC5(CN(C)C5)C4)cc3)c2=O)CN1C(=O)c1ccc(Br)c(C(F)(F)F)c1 (single isomer, unassigned) [Compound 76a]
EC50 [1]: 500 to 5000 nM

CC1Cn2c(c(C(=O)NCc3ccccc3-c3cccnn3)n(-c3ccc(N4CC5(CN(C)C5)C4)cc3)c2=O)CN1C(=O)c1ccc(Br)c(C(F)(F)F)c1 (single isomer, unassigned) [Compound 76b]
EC50: 500 to 5000 nM

CC1Cn2c(c(C(=O)NCc3ccccc3-c3ccccn3)n(-c3ccc(N4CC5(CN(C)C5)C4)cc3)c2=O)CN1C(=O)c1ccc(Br)c(C(F)(F)F)c1 (single isomer, unassigned) [Compound 77a]
EC50 [1]: < 50 nM

CC1Cn2c(c(C(=O)NCc3ccccc3-c3ccccn3)n(-c3ccc(N4CC5(CN(C)C5)C4)cc3)c2=O)CN1C(=O)c1ccc(Br)c(C(F)(F)F)c1 (single isomer, unassigned) [Compound 77b]
EC50: 50 to 500 nM

CC1Cn2c(c(C(=O)NCc3ccccc3-c3ncccn3)n(-c3ccc(N4CC5(CN(C)C5)C4)cc3)c2=O)CN1C(=O)c1ccc(Br)c(C(F)(F)F)c1 (single isomer, unassigned) [Compound 78a]
EC50 [1]: < 50 nM

CC1Cn2c(c(C(=O)NCc3ccccc3-c3ccncn3)n(-c3ccc4nn(CC(F)(F)F)cc4c3)c2=O)CN1C(=O)c1ccc(Br)c(C(F)(F)F)c1 (single isomer, unassigned) [Compound 79a]
EC50 [1]: 50 to 500 nM

CC1Cn2c(c(C(=O)NCc3ccccc3-c3ccncn3)n(-c3ccc4nn(CC(F)(F)F)cc4c3)c2=O)CN1C(=O)c1ccc(Br)c(C(F)(F)F)c1 (single isomer, unassigned) [Compound 79b]
EC50: < 50 nM

CC1Cn2c(c(C(=O)NCc3ccccc3-c3ccncn3)n(-c3ccc(N4CCC5(CC4)CN(C)C5)cc3)c2=O)CN1C(=O)c1ccc(Br)c(C(F)(F)F)c1 (single isomer, unassigned) [Compound 80a]
EC50 [1]: 50 to 500 nM

CC1Cn2c(c(C(=O)NCc3ccccc3-c3ccncn3)n(-c3ccc(N4CCC5(CC4)CN(C)C5)cc3)c2=O)CN1C(=O)c1ccc(Br)c(C(F)(F)F)c1 (single isomer, unassigned) [Compound 80b]
EC50: 50 to 500 nM

CC1Cn2c(c(C(=O)NCc3ccccc3-c3ncccn3)n(-c3ccc(OCC4(O)CC4)cc3)c2=O)CN1C(=O)c1ccc(Br)c(C(F)(F)F)c1 (single isomer, unassigned) [Compound 81a]
EC50 [1]: 50 to 500 nM

CC1Cn2c(c(C(=O)NCc3ccccc3-c3ncccn3)n(-c3ccc(OCC4(O)CC4)cc3)c2=O)CN1C(=O)c1ccc(Br)c(C(F)(F)F)c1 (single isomer, unassigned) [Compound 81b]
EC50: < 50 nM

CC1Cn2c(c(C(=O)NCc3ccccc3-c3ccncn3)n(-c3ccc(N4CC5(CCN5C)C4)cc3)c2=O)CN1C(=O)c1ccc(Br)c(C(F)(F)F)c1 (single isomer, unassigned) [Compound 84a]
EC50 [1]: 50 to 500 nM

CC1Cn2c(c(C(=O)NCc3ccccc3-c3ccncn3)n(-c3ccc(N4CC5(CCN5C)C4)cc3)c2=O)CN1C(=O)c1ccc(Br)c(C(F)(F)F)c1 (single isomer, unassigned) [Compound 84b]
EC50: < 50 nM

CC1Cn2c(c(C(=O)NCc3ccccc3-c3ccncn3)n(-c3ccc(N4CCC5(CN(C)C5)C4)cc3)c2=O)CN1C(=O)c1ccc(Br)c(C(F)(F)F)c1 (single isomer, unassigned) [Compound 88a]
EC50 [1]: < 50 nM

CC1Cn2c(c(C(=O)NCc3ccccc3-c3ccncn3)n(-c3ccc(N4CCC5(CN(C)C5)C4)cc3)c2=O)CN1C(=O)c1ccc(Br)c(C(F)(F)F)c1 (single isomer, unassigned) [Compound 88b]
EC50: 50 to 500 nM

CC1Cn2c(c(C(=O)NCc3ccccc3-c3ccncn3)n(-c3ccc4oc(N)nc4c3)c2=O)CN1C(=O)c1ccc(Br)c(Cl)c1 (single isomer, unassigned) [Compound 92a]
EC50 [1]: 500 to 5000 nM

CC1Cn2c(c(C(=O)NCc3ccccc3-c3ccncn3)n(-c3ccc4oc(N)nc4c3)c2=O)CN1C(=O)c1ccc(Br)c(Cl)c1 (single isomer, unassigned) [Compound 92b]
EC50: 500 to 5000 nM

CC1Cn2c(c(C(=O)NCc3ccccc3-c3ccncn3)n(-c3ccc4oc(N)nc4c3)c2=O)CN1C(=O)c1ccc(Br)c(C(F)(F)F)c1 (single isomer, unassigned) [Compound 93a, (6R*)-2-(2-amino-1,3-benzoxazol-5-yl)-7-[4-bromo-3-(trifluoromethyl)benzoyl]-6-methyl-3-oxo-N-{[2-(pyrimidin-4-yl)phenyl]methyl}-5H,6H,8H-imidazo[1,5-a]pyrazine-1-carboxamide]
EC50: 500 to 5000 nM
